Test results reported in ChEMBL document CHEMBL3400121, “Design and synthesis of novel 1,2,3-triazole-pyrimidine-urea hybrids as potential anticancer agents” (Bioorg Med Chem Lett, 2015).
Active and inactive are the calls of the source. The calls are words filed in the database; no cut-off is given here.

Tests used:
[1] = Anticancer activity against human EC109 cells assessed as inhibition of proliferation after 72 hrs by MTT assay; format: functional, cell-based; conditions: ECa-109, 72 h
MCF7 = assay: Anticancer activity against human MCF7 cells assessed as inhibition of proliferation after 72 hrs by MTT assay; format: functional, cell-based; conditions: MCF7, 72 h
MGC-803 [2] = assay: Anticancer activity against human MGC803 cells assessed as inhibition of proliferation after 72 hrs by MTT assay; format: functional, cell-based; conditions: MGC-803, 72 h
[3] = Anticancer activity against mouse B16F10 cells assessed as inhibition of proliferation after 72 hrs by MTT assay; format: functional, cell-based; conditions: B16-F10, 72 h
[4] = Cytotoxicity against human GES-1 cells assessed as inhibition of proliferation after 72 hrs by MTT assay; format: cell-based; conditions: GES1, 72 h
MGC-803 [5] = assay: Induction of apoptosis in human MGC803 cells assessed as viable cells at 4 uM after 12 to 24 hrs using annexin V-FITC/PI double staining by flow cytometry (reference value: 90.4 %); format: functional; conditions: read-out: Activity
MGC-803 [6] = assay: Induction of apoptosis in human MGC803 cells assessed as early apoptotic cells at 4 uM after 12 to 24 hrs using annexin V-FITC/PI double staining by flow cytometry (reference value: 1.6 %); format: functional
MGC-803 [7] = assay: Induction of apoptosis in human MGC803 cells assessed as late apoptotic cells at 4 uM after 12 to 24 hrs using annexin V-FITC/PI double staining by flow cytometry (reference value: 1.2 %); format: functional
MGC-803 [8] = assay: Induction of apoptosis in human MGC803 cells assessed as necrotic cells at 4 uM after 12 to 24 hrs using annexin V-FITC/PI double staining by flow cytometry (reference value: 6.8 %); format: functional
MGC-803 [9] = assay: Induction of apoptosis in human MGC803 cells assessed as total apoptotic cells at 1 uM after 12 to 24 hrs using annexin V-FITC/PI double staining by flow cytometry (reference value: 2.8 %); format: functional
MGC-803 [10] = assay: Induction of apoptosis in human MGC803 cells assessed as total apoptotic cells at 2 uM after 12 to 24 hrs using annexin V-FITC/PI double staining by flow cytometry (reference value: 2.8 %); format: functional
MGC-803 [11] = assay: Induction of apoptosis in human MGC803 cells assessed as total apoptotic cells at 4 uM after 12 to 24 hrs using annexin V-FITC/PI double staining by flow cytometry (reference value: 2.8 %); format: functional
MGC-803 [12] = assay: Induction of apoptosis in human MGC803 cells after 12 to 24 hrs using annexin V-FITC/PI double staining by flow cytometry; format: functional, cell-based
MGC-803 [13] = assay: Induction of apoptosis in human MGC803 cells assessed as increase in p53 level at 2 to 4 uM after 48 hrs by Western blot analysis; format: functional, cell-based
MGC-803 [14] = assay: Induction of apoptosis in human MGC803 cells assessed as decrease in pro-caspase 3 level at 2 to 4 uM after 48 hrs by Western blot analysis; format: functional, cell-based
MGC-803 [15] = assay: Induction of apoptosis in human MGC803 cells assessed as cell rounding at 1 to 4 uM after 24 hrs using Hoechst 33258 staining by fluorescence microscopy; format: functional, cell-based
MGC-803 [16] = assay: Induction of apoptosis in human MGC803 cells assessed as chromatin shrinkage at 1 to 4 uM after 24 hrs using Hoechst 33258 staining by fluorescence microscopy; format: functional, cell-based
MGC-803 [17] = assay: Induction of apoptosis in human MGC803 cells assessed as formation of apoptotic bodies at 1 to 4 uM after 24 hrs using Hoechst 33258 staining by fluorescence microscopy; format: functional, cell-based
MGC-803 [18] = assay: Induction of apoptosis in human MGC803 cells assessed as viable cells at 1 uM after 12 to 24 hrs using annexin V-FITC/PI double staining by flow cytometry (reference value: 90.4 %); format: functional; conditions: read-out: Activity
MGC-803 [19] = assay: Induction of apoptosis in human MGC803 cells assessed as early apoptotic cells at 1 uM after 12 to 24 hrs using annexin V-FITC/PI double staining by flow cytometry (reference value: 1.6 %); format: functional
MGC-803 [20] = assay: Induction of apoptosis in human MGC803 cells assessed as late apoptotic cells at 1 uM after 12 to 24 hrs using annexin V-FITC/PI double staining by flow cytometry (reference value: 1.2 %); format: functional
MGC-803 [21] = assay: Induction of apoptosis in human MGC803 cells assessed as necrotic cells at 1 uM after 12 to 24 hrs using annexin V-FITC/PI double staining by flow cytometry (reference value: 6.8 %); format: functional
MGC-803 [22] = assay: Induction of apoptosis in human MGC803 cells assessed as viable cells at 2 uM after 12 to 24 hrs using annexin V-FITC/PI double staining by flow cytometry (reference value: 90.4 %); format: functional; conditions: read-out: Activity
MGC-803 [23] = assay: Induction of apoptosis in human MGC803 cells assessed as early apoptotic cells at 2 uM after 12 to 24 hrs using annexin V-FITC/PI double staining by flow cytometry (reference value: 1.6 %); format: functional
MGC-803 [24] = assay: Induction of apoptosis in human MGC803 cells assessed as late apoptotic cells at 2 uM after 12 to 24 hrs using annexin V-FITC/PI double staining by flow cytometry (reference value: 1.2 %); format: functional
MGC-803 [25] = assay: Induction of apoptosis in human MGC803 cells assessed as necrotic cells at 2 uM after 12 to 24 hrs using annexin V-FITC/PI double staining by flow cytometry (reference value: 6.8 %); format: functional

SMILES: COc1cc(-c2nc(SCc3cn(CC(=O)NC(=O)Nc4ccccn4)nn3)nc(Nc3cccc(C(F)(F)F)c3)c2C#N)cc(OC)c1OC
- IC50 [1]: > 64 µM
- IC50 (MCF7): 8.14 µM
- IC50 (MGC-803 [2]): 8.21 µM
- IC50 [3]: 24.4 µM
- IC50 [4]: > 64 µM

SMILES: COc1ccc(Nc2nc(SCc3cn(CC(=O)NC(=O)Nc4ccccn4)nn3)nc(-c3ccc(C)cc3)c2C#N)cc1
- IC50 [1]: 5.87 µM
- IC50 (MCF7): 23.4 µM
- IC50 (MGC-803 [2]): 1.7 µM
- IC50 [3]: 8.75 µM
- IC50 [4]: 35.7 µM

SMILES: N#Cc1c(Nc2cccc(C(F)(F)F)c2)nc(SCc2cn(CC(=O)NC(=O)Nc3ccccn3)nn2)nc1-c1ccc(Br)cc1
- IC50 [1]: 2.96 µM
- IC50 (MCF7): 3.11 µM
- IC50 (MGC-803 [2]): 3.6 µM
- IC50 [3]: 4.55 µM
- IC50 [4]: 38.7 µM

SMILES: COc1ccccc1Nc1nc(SCc2cn(CC(=O)NC(=O)Nc3ccccn3)nn2)nc(-c2ccc(C)cc2)c1C#N
- IC50 [1]: 7.85 µM
- IC50 (MCF7): 19.7 µM
- IC50 (MGC-803 [2]): 7.96 µM
- IC50 [3]: 8.58 µM
- IC50 [4]: > 64 µM

SMILES: CC(C)c1ccc(Nc2nc(SCc3cn(CC(=O)NC(=O)Nc4ccccn4)nn3)nc(-c3ccc(Br)cc3)c2C#N)cc1
- IC50 [1]: > 64 µM
- IC50 (MCF7): 30.6 µM
- IC50 (MGC-803 [2]): 15.6 µM
- IC50 [3]: 0.042 µM
- IC50 [4]: > 64 µM

SMILES: Cc1ccc(Nc2nc(SCc3cn(CC(=O)NC(=O)Nc4ccccn4)nn3)nc(-c3ccc(C(C)C)cc3)c2C#N)cc1
- IC50 [1]: 6.7 µM
- IC50 (MCF7): > 64 µM
- IC50 (MGC-803 [2]): 3.36 µM
- IC50 [3]: 3.06 µM
- IC50 [4]: > 64 µM

SMILES: COc1cc(-c2nc(SCc3cn(CC(=O)NC(=O)Nc4ccccn4)nn3)nc(Nc3ccc(C(C)C)cc3)c2C#N)cc(OC)c1OC
- IC50 [1]: > 64 µM
- IC50 (MCF7): 30.9 µM
- IC50 (MGC-803 [2]): 35.5 µM
- IC50 [3]: 1.21 µM

SMILES: COc1cc(-c2nc(SCc3cn(CC(=O)NC(=O)Nc4ccccn4)nn3)nc(Nc3cccc(Cl)c3)c2C#N)cc(OC)c1OC
- IC50 [1]: > 64 µM
- IC50 (MCF7): 24 µM
- IC50 (MGC-803 [2]): 15.4 µM
- IC50 [3]: 1.42 µM

SMILES: CC(C)c1ccc(-c2nc(SCc3cn(CC(=O)NC(=O)Nc4ccccn4)nn3)nc(Nc3cccc(Cl)c3)c2C#N)cc1
- IC50 [1]: 13.3 µM
- IC50 (MCF7): 18 µM
- IC50 (MGC-803 [2]): > 64 µM
- IC50 [3]: 1.13 µM

SMILES: COc1cc(-c2nc(SCc3cn(CC(=O)NC(=O)Nc4ccccn4)nn3)nc(Nc3ccc(C)cc3)c2C#N)cc(OC)c1OC
- viability at 4 µM (MGC-803 [5]): 35.2%
- Activity (MGC-803 [6]): 52.7%
- Activity (MGC-803 [7]): 10.3%
- Activity (MGC-803 [8]): 1.8%
- Activity (MGC-803 [9]): 17.2%
- Activity (MGC-803 [10]): 32.5%
- Activity (MGC-803 [11]): 63%
- Activity (MGC-803 [12]): Dose-dependent effect
- IC50 [1]: 21.3 µM
- IC50 (MCF7): 21 µM
- IC50 (MGC-803 [2]): 7.03 µM
- IC50 [3]: 0.032 µM
- IC50 [4]: > 64 µM
- Activity (MGC-803 [13]): Active
- Activity (MGC-803 [14]): Active
- Activity (MGC-803 [15]): Active
- Activity (MGC-803 [16]): Active
- Activity (MGC-803 [17]): Active
- viability at 1 µM (MGC-803 [18]): 80.3%
- Activity (MGC-803 [19]): 13.1%
- Activity (MGC-803 [20]): 4.1%
- Activity (MGC-803 [21]): 2.5%
- viability at 2 µM (MGC-803 [22]): 65.8%
- Activity (MGC-803 [23]): 26.1%
- Activity (MGC-803 [24]): 6.4%
- Activity (MGC-803 [25]): 1.7%

SMILES: COc1ccc(Nc2nc(SCc3cn(CC(=O)NC(=O)Nc4ccccn4)nn3)nc(-c3ccc(C(C)C)cc3)c2C#N)cc1
- IC50 [1]: 5.42 µM
- IC50 (MCF7): > 64 µM
- IC50 (MGC-803 [2]): > 64 µM
- IC50 [3]: 0.36 µM

SMILES: COc1cc(-c2nc(SCc3cn(CC(=O)NC(=O)Nc4ccccn4)nn3)nc(Nc3ccc(Cl)cc3)c2C#N)cc(OC)c1OC
- IC50 [1]: > 64 µM
- IC50 (MCF7): 45.1 µM
- IC50 (MGC-803 [2]): 17.5 µM
- IC50 [3]: 1.11 µM

SMILES: Cc1ccc(-c2nc(SCc3cn(CC(=O)NC(=O)Nc4ccccn4)nn3)nc(Nc3ccc(C(C)C)cc3)c2C#N)cc1
- IC50 [1]: 7.45 µM
- IC50 (MCF7): > 64 µM
- IC50 (MGC-803 [2]): 19.3 µM
- IC50 [3]: 0.035 µM
- IC50 [4]: > 64 µM

SMILES: Cc1ccc(Nc2nc(SCc3cn(CC(=O)NC(=O)Nc4ccccn4)nn3)nc(-c3ccccc3)c2C#N)cc1
- IC50 [1]: 24.6 µM
- IC50 (MCF7): > 64 µM
- IC50 (MGC-803 [2]): 7.87 µM
- IC50 [3]: 3.3 µM
